Measured values reported in patent US6602512B1, “Composition for the prevention of muscle fatique and skeletal muscle adaptation of strenuous exercise” (Sigma-Tau HealthScience S.p.A., priority 1999, dated 2003).

Experiments:
gastrocnemius muscle = assay: Forced muscular exercise test (treadmill), MDA content in gastrocnemius muscle; assay type: in vivo; details: rats, daily oral 200 mg/kg of each compound for 6 days; for MDA content in muscle, After 5 min: gastrocnemius muscle 5 min after end of treadmill test; for MDA content in muscle, After 30 min: gastrocnemius muscle 30 min after end of treadmill test
Source text: As is known, forced muscular exercise can produce structural and inflammatory-type lesions at muscle fibre level, due to the increased oxygen consumption and to production of reactive oxygen species (ROS). A marker of the level of ROS-induced lipid peroxidation of the muscle may be obtained from its malondialdehyde (MDA) concentration. For this test, the method described by Husain was used (Husain K., Pathophysiology, 4, 69, 1997) as modified by Li (Li J.X., Acta Pharmacologica Sinica, 20, 126, 1999) which consists essentially in examining rats on a treadmill at controlled belt speed and preset inclination. In this way the rats were made to run at a belt speed of 28 m/min and an inclination of approximately 5°. Exhaustion of the control animals subjected to the exercise occurred after approximately 90 minutes.
The test was performed on rats receiving daily oral treament over the 6-day period preceding the test with 200 mg/kg of L-carnitine or with 200 mg/kg of creatinol-phosphate or with the two compounds in combination.
Five minutes and 30 minutes, respectively, after the end of the test, the animals were sacrificed and samples of gastrocnemius muscle were taken for measurement of the malondialdehyde (MDA) content using the reaction with thiobarbituric acid according to the method described by Ohkawa (Ohkawa H. Angl. Biochem 95, 351, 1979).

mice = assay: Muscle fatigue test (swimming endurance); assay type: in vivo; details: for swimming endurance time (in words): daily oral 200 mg/kg over 6 days, versus controls; for Swimming time: daily oral doses of 200 mg/kg of each compound over 6 days preceding the test
Description: The method described by Zheng (Zheng R. L., Acta Pharmacol. Sinica, 14, 47, 1993) was used for this test in order to observe whether the administration of L-carnitine or creatinol-phosphate or of the two products in combination might increase […] in treated animals as compared to controls.
In this test, different groups of mice received daily oral doses of 200 mg/kg of L-carnitine or 200 mg/kg of creatinol-phosphate or of the two compounds in combination over the 6-day period preceding the test. The animals were immersed in a tank full of water and swimming endurance time was measured.

Row | SMILES | MDA content in muscle, After 5 min (gastrocnemius muscle) | MDA content in muscle, After 30 min (gastrocnemius muscle) | swimming endurance time (in words) (mice) | Swimming time (mice)
1 | CN(CCOP(=O)(O)O)C(=N)N [Creatinol-phosphate, 1-(2-hydroxyethyl)-1-methylguanidine-O-phosphate] | 206 ± 16 nmol/g | 209 ± 12 nmol/g | increased swimming endurance time | 124 ± 11 min
2 | C[N+](C)(C)C[C@H](O)CC(=O)[O-] [L-carnitine] | 218 ± 11 nmol/g | 216 ± 14 nmol/g | increased swimming endurance time | 118 ± 14 min
